Laboratory results published in patent publication US9023408B2, “Composition and method for control of diabetes” (Meyer Nutriceuticals LLC, priority 2009, dated 2015).

Columns and labels:
[1] = human, in vivo
Method: An additional gram of pellets was added to the dose; and the additional pellets had been surface-labeled with 99m-Tc-polymethylmethacrylate (these additional pellets could not release their contents), so that the positions of the pellets with time could be followed with a gamma camera. The releasing pellets also contained 5% (w/w) APAP which is rapidly and completely absorbed from small or large bowel, even in the presence of food. The APAP served as a pharmacokinetic marker. Subjects ate a free-choice meal at 241 min. Finally, PYY levels (see FIG. 4b) were followed on CTM and also on control days when four of the eight subjects shown in FIG. 4a consumed the standard breakfast at t=0 and a free choice lunch at t=241 min, but no pellets of CTM #3. Because lauric acid released from CTM #3 cannot be distinguished in plasma from dietary and endogenous lauric acid, assays of plasma PYY served as a surrogate for the release of bioactive lauric acid, which is known to be a potent stimulus of secretion of PYY and GLP-1 from L cells. To compare the time-courses of basal subtracted PYY measurements with those of APAP, analytical values for APAP were scaled up so that they equaled the peak PYY at 300 min.
From 240-300 minutes, the pellets began to empty from the ileum, so that by 300 min, there were few pellets in the small bowel, and the majority of pellets was now in the colon. […]

GLP-1 = experiment: Placebo-controlled double-blinded study in type 2 diabetes: plasma GLP-1; design: species or system human; conditions: in vivo
Method: FIGS. 6 and 7 depict the effect of CTM #3 versus placebo on blood glucose in a randomized, placebo-controlled, double-blinded study in 10 subjects with mild to moderate type 2 diabetes. After an overnight fast, subjects ingested 10 g of placebo pellets or CTM #3 pellets with the same standard breakfast as above (415 kcal; 71 g of carbohydrate) followed by a standard lunch at 240 min (708 kcal; 89 g of carbohydrate). […] The higher calorie lunch raised GLP-1s more than the breakfast on placebo days; and the CTM raised the post lunch GLP-1s even more. […] Using a similar calculation as used above for PYY, the per-calorie effectiveness of the lauric acid in CTM #3 in boosting the GLP-1 response to the meal was 77 times that of the calories in the breakfast.
For comparisons, the APAP levels have been scaled up so that their value equaled that of the GLP-1 peak at 270 min. […] The diabetic subjects were older than the normal subjects, and four of them had mild vagal neuropathy which might have contributed to slower gastric emptying. […]
The GLP-1 values (vertical axis) following the CTM treatment are expressed as a percent of the corresponding value at each time point following the placebo treatment, so that any value above the horizontal 100% line represents the effect of lauric acid released from the CTM #3. […]

[2] = U.S.P. in vitro dissolution test (rotating basket); conditions: uncoated cores of CTM #3

CCCCCCCCCCCC(=O)O [lauric acid]
duration of slow release from the dosage form after ingestion [1]: 330 to 360 min | per calorie potency relative to dietary nutrients in releasing GLP-1 and PYY (GLP-1): 77-150 times | solubility in simulated bile (bile salts and lecithin) at pH 6.2 ([2]; pH 6.2): only half as soluble as maltose | solubility compared with maltose, bile-free medium ([2]; pH 6.2 1 h then pH 7.2 3 h): much less soluble than maltose | solubility in simulated bile (bile salts and lecithin) at pH 7.2 ([2]; pH 7.2): as soluble as maltose or APAP
